Data published in patent US20040157738A1, “Novel oxygen containing fused cyclic derivatives and herbicidal, desiccant and defoliate compositions containing them” (ISHIHARA SANGYO KAISHA, LTD., priority 2003, published 2004).

Assays:
Assay type in all cases: in vivo
[1] = system: barnyardgrass (Echinochloa crus-galli L.): ECHCC; experiment: Test Example 1: pre-emergence herbicidal activity (growth controlling degree); settings: 20th to 21st day after application
Source text: (§1) Upland field soil was put into a 1/170,000 ha pot, and seeds of various plants [1. barnyardgrass (Echinochloa crus-galli L.): ECHCC, 2. crabgrass (Digitaria sanguinalis L.): DIGSA, 3. green foxtail (Setaria viridis L.): SETVI, 4. redroot pigweed (Amaranthus retroflexus L.): AMARE, 5. prickly sida (Sida spinosa L.): SIDSP, 6. velvetleaf (Abutilon theophrasti): ABUTH, 7. common cocklebur (Xanthium strumarium L.): XANST, 8. rice (Oryza sativa L.): ORYSA, 9. wheat (Triticum aestivum L.): TRZAX, 10. corn (Zea mays L.): ZEAMX, 11. soybean (Glycine max Merr.): GLXMA] were sown. Then, one day after the sowing, a wettable powder or emulsifiable concentrate having the compound of the present invention formulated in accordance with a usual formulation method, was weighed so that the active ingredient would be a predetermined amount, and diluted with water in an amount of 500 L/ha. The herbicide adjusted was applied by a small size sprayer for pre-emergence treatment. On the 20th to 21st day after the application of the herbicide, the growth of the respective plants was visually observed, and the herbicidal effects were evaluated by growth controlling degrees (%) ranging from 0 (equivalent to the untreated control) to 100 (complete kill), whereby the results shown in Table 11, were obtained. Compound Nos. in Table 11 correspond to Compound Nos. in Table 1 to 7 given hereinbefore.

[2] = system: common cocklebur (Xanthium strumarium L.): XANST; experiment: as above; settings: 20th to 21st day after application
Source text: as §1

[3] = system: corn (Zea mays L.): ZEAMX; experiment: as above; settings: 20th to 21st day after application
Source text: as §1

[4] = system: crabgrass (Digitaria sanguinalis L.): DIGSA; experiment: as above; settings: 20th to 21st day after application
Source text: as §1

[5] = system: green foxtail (Setaria viridis L.): SETVI; experiment: as above; settings: 20th to 21st day after application
Source text: as §1

[6] = system: prickly sida (Sida spinosa L.): SIDSP; experiment: as above; settings: 20th to 21st day after application
Source text: as §1

[7] = system: redroot pigweed (Amaranthus retroflexus L.): AMARE; experiment: as above; settings: 20th to 21st day after application
Source text: as §1

[8] = system: rice (Oryza sativa L.): ORYSA; experiment: as above; settings: 20th to 21st day after application
Source text: as §1

[9] = system: soybean (Glycine max Merr.): GLXMA; experiment: as above; settings: 20th to 21st day after application
Source text: as §1

[10] = system: velvetleaf (Abutilon theophrasti): ABUTH; experiment: as above; settings: 20th to 21st day after application
Source text: as §1

[11] = system: barnyardgrass (Echinochloa crus-galli L.), ECHCG; experiment: Test Example 2: post-emergence (foliage treatment) herbicidal activity (growth controlling degree); settings: Echinochloa crus-galli, 504 h, 1.8-2.4 leaf stage; for pest or weed control at 63 g/ha: 63 g a.i./ha; for pest or weed control at 31 g/ha: 31 g a.i./ha
Source text: (§2) Upland field soil was put into a 1/170,000 ha pot, and seeds of various plants were sown. Then, when the plants reached predetermined leaf stages [I. barnyardgrass (Echinochloa crus-galli L.), ECHCG: 1.8-2.4 leaf stage, 2. crabgrass (Digitaria sanguinalis L.), DIGSA: 1.5-2.2 leaf stage, 3. green foxtail (Setaria viridis L.), SETVI: 1.7-2.5 leaf stage, 4. redroot pigweed (Amaranthus retroflexus L.), AMARE: 0.1-0.3 leaf stage, 5. prickly sida (Sida spinosa L.), SIDSP: 0.3-0.5 leaf stage, 6. velvetleaf (Abutilon theophrasti), ABUTH: 0.3-0.4 leaf stage, 7. common cocklebur (Xanthium strumarium L.), XANST: 0.2-0.6 leaf stage, 8. rice (Oryza sativa L.), ORYSA: 1.6-2.2 leaf stage, 9. wheat (Triticum aestivum L.), TRZAX: 2.8 leaf stage, 10. corn (Zea mays L.), ZEAMX: 2.2-2.5 leaf stage, 11. soybean (Glycine max Merr.), GLXMA: 0.2-0.3 leaf stage], a wettable powder or emulsifiable concentrate having the compound of the present invention formulated in accordance with a usual formulation method, was weighed so that the active ingredient would be a predetermined amount, and diluted with water in an amount of 500 L/ha. To the diluted solution, 0.1%(v/v) of an agricultural spreader was added. The herbicide adjusted was applied by a small size sprayer for foliage treatment. On the […] day after the application of the herbicide, the growth of the respective plants was visually observed, and the herbicidal effects were evaluated by growth controlling degrees (%) ranging from 0 (equivalent to the untreated control) to 100 (complete kill), whereby the results shown in Table 12, were obtained. Compound Nos. in Table 12 correspond to Compound Nos. in Table 1 to 7 given hereinbefore.

[12] = system: common cocklebur (Xanthium strumarium L.), XANST; experiment: as above; settings: Xanthium strumarium, 504 h, 0.2-0.6 leaf stage; for pest or weed control at 63 g/ha: 63 g a.i./ha; for pest or weed control at 31 g/ha: 31 g a.i./ha
Source text: as §2

[13] = system: corn (Zea mays L.), ZEAMX; experiment: as above; settings: Zea mays, 504 h, 2.2-2.5 leaf stage; for plant injury at 63 g/ha: 63 g a.i./ha; for plant injury at 31 g/ha: 31 g a.i./ha
Source text: as §2

[14] = system: crabgrass (Digitaria sanguinalis L.), DIGSA; experiment: as above; settings: Digitaria sanguinalis, 504 h, 1.5-2.2 leaf stage, read-out: growth controlling degree, DIGSP; for pest or weed control at 63 g/ha: 63 g a.i./ha; for pest or weed control at 31 g/ha: 31 g a.i./ha
Source text: as §2

[15] = system: green foxtail (Setaria viridis L.), SETVI; experiment: as above; settings: Setaria viridis, 504 h, 1.7-2.5 leaf stage; for pest or weed control at 63 g/ha: 63 g a.i./ha; for pest or weed control at 31 g/ha: 31 g a.i./ha
Source text: as §2

[16] = system: prickly sida (Sida spinosa L.), SIDSP; experiment: as above; settings: Sida spinosa, 504 h, 0.3-0.5 leaf stage; for pest or weed control at 63 g/ha: 63 g a.i./ha; for pest or weed control at 31 g/ha: 31 g a.i./ha
Source text: as §2

[17] = system: redroot pigweed (Amaranthus retroflexus L.), AMARE; experiment: as above; settings: 0.1-0.3 leaf stage
Source text: as §2

[18] = system: rice (Oryza sativa L.), ORYSA; experiment: as above; settings: Oryza sativa, 504 h, 1.6-2.2 leaf stage; for plant injury at 63 g/ha: 63 g a.i./ha; for plant injury at 31 g/ha: 31 g a.i./ha
Source text: as §2

[19] = system: soybean (Glycine max Merr.), GLXMA; experiment: as above; settings: Glycine max, 504 h, 0.2-0.3 leaf stage; for pest or weed control at 63 g/ha: 63 g a.i./ha; for pest or weed control at 31 g/ha: 31 g a.i./ha
Source text: as §2

[20] = system: velvetleaf (Abutilon theophrasti), ABUTH; experiment: as above; settings: Abutilon theophrasti, 504 h, 0.3-0.4 leaf stage; for pest or weed control at 63 g/ha: 63 g a.i./ha; for pest or weed control at 31 g/ha: 31 g a.i./ha
Source text: as §2

Compound | pest or weed control at 63 g/ha [11] [%] | pest or weed control at 63 g/ha [12] [%] | plant injury at 63 g/ha [13] [%] | pest or weed control at 63 g/ha [14] [%] | pest or weed control at 63 g/ha [15] [%] | pest or weed control at 63 g/ha [16] [%] | plant injury at 63 g/ha [18] [%] | pest or weed control at 63 g/ha [19] [%] | pest or weed control at 63 g/ha [20] [%] | growth controlling degree, ECHCG ([1]; 250 g a.i./ha) [%] | growth controlling degree, XANST ([2]; 250 g a.i./ha) [%] | growth controlling degree, ZEAMX ([3]; 250 g a.i./ha) [%] | growth controlling degree, DIGSP ([4]; 250 g a.i./ha) [%] | growth controlling degree, SETVI ([5]; 250 g a.i./ha) [%] | growth controlling degree, SIDSP ([6]; 250 g a.i./ha) [%] | growth controlling degree, AMARE ([7]; 250 g a.i./ha) [%] | growth controlling degree, ORYSA ([8]; 250 g a.i./ha) [%] | growth controlling degree, GLXMA ([9]; 250 g a.i./ha) [%] | growth controlling degree, ABUTH ([10]; 250 g a.i./ha) [%] | pest or weed control at 31 g/ha [11] [%] | other results
Cn1nc(-c2c(F)cc(Cl)c3c2CCCO3)c(Cl)c1C(F)(F)F [Compound 1-2, 4-chloro-3-(8-chloro-6-fluoro-3,4-dihydro-2H-1-benzopyran-5-yl)-1-methyl-5-(trifluoromethyl)-1H-pyrazole] | 98 | 100 | 60 | 60 | 70 | 98 | 50 | 60 | 100 | – | – | – | – | – | – | – | – | – | – | – | growth controlling degree, ECHCG ([1]; 125 g a.i./ha): 100%; growth controlling degree, XANST ([2]; 125 g a.i./ha): 100%; growth controlling degree, ZEAMX ([3]; 125 g a.i./ha): 10%; growth controlling degree, DIGSP ([4]; 125 g a.i./ha): 100%; growth controlling degree, SETVI ([5]; 125 g a.i./ha): 100%; growth controlling degree, SIDSP ([6]; 125 g a.i./ha): 100%; growth controlling degree, AMARE ([7]; 125 g a.i./ha): 100%; growth controlling degree, ORYSA ([8]; 125 g a.i./ha): 20%; growth controlling degree, GLXMA ([9]; 125 g a.i./ha): 10%; growth controlling degree, ABUTH ([10]; 125 g a.i./ha): 100%; growth controlling degree, AMARE ([17]; 63 g a.i./ha): 100%
CC1CCc2c(c(Cl)cc(F)c2-c2nn(C)c(C(F)(F)F)c2Cl)O1 (stereo not shown) [Compound 1-8] | – | – | – | – | – | – | – | – | – | 50 | 10 | 10 | 98 | 95 | 98 | 100 | 20 | 10 | 100 | 0 | pest or weed control at 31 g/ha [12]: 70%; plant injury at 31 g/ha [13]: 50%; pest or weed control at 31 g/ha [14]: 10%; pest or weed control at 31 g/ha [15]: 30%; pest or weed control at 31 g/ha [16]: 80%; growth controlling degree, AMARE ([17]; 31 g a.i./ha): 95%; plant injury at 31 g/ha [18]: 40%; pest or weed control at 31 g/ha [19]: 40%; pest or weed control at 31 g/ha [20]: 100%
Fc1cc(Cl)c2c(c1-c1nn3c(c1Cl)CCCC3)CCCO2 [Compound 1-79, 3-chloro-2-(8-chloro-6-fluoro-3,4-dihydro-2H-1-benzopyran-5-yl)-4,5,6,7-tetrahydro-pyrazolo[1,5-a]pyridine] | – | – | – | – | – | – | – | – | – | 100 | – | 10 | – | – | 80 | 100 | 30 | 30 | 60 | 95 | pest or weed control at 31 g/ha [12]: 100%; plant injury at 31 g/ha [13]: 50%; pest or weed control at 31 g/ha [14]: 40%; pest or weed control at 31 g/ha [15]: 100%; pest or weed control at 31 g/ha [16]: 98%; growth controlling degree, AMARE ([17]; 31 g a.i./ha): 90%; plant injury at 31 g/ha [18]: 50%; pest or weed control at 31 g/ha [19]: 70%; pest or weed control at 31 g/ha [20]: 100%
Fc1cc(Cl)c2c(c1-c1ncc(C(F)(F)F)cc1Cl)CCCO2 [Compound 7-2, 3-chloro-2-(8-chloro-6-fluoro-3,4-dihydro-2H-1-benzopyran-5-yl)-5-(trifluoromethyl)-pyridine] | 80 | 70 | 90 | 95 | 100 | 100 | 60 | 60 | 100 | 100 | 50 | 60 | 100 | 100 | 100 | 100 | 50 | 50 | 100 | – | –
